Tests used:
[1] = Acute toxicity test, mouse; assay type: in vivo; details: mouse, in vivo
Mouse = experiment: Acute toxicity test, mouse; assay type: in vivo; details: mice
Rat = experiment: in vivo
Method: (§1) Acute toxicity test was conducted on rats aged four weeks to which 5-(3-ethoxy-4-pentyloxyphenyl)-2,4-thiazolidinedione was administered.

in vivo = details: rat, in vivo
Method: as §1

mice and rats = experiment: Acute toxicity test, symptoms and findings common to mice and rats; assay type: in vivo; details: for life period in the death cases: both animals
Method: as §1
The following symptoms in common with the mice and rats were observed.

[2] = ip, intraperitoneal injection, female
[3] = ip, intraperitoneal injection, male
[4] = po, oral administration, female
[5] = sc, subcutaneous injection, female
[6] = sc, subcutaneous injection, male

## CCCCCOc1ccc(C2SC(=O)NC2=O)cc1OCC (centres unmarked) [5-(3-ethoxy-4-pentyloxyphenyl)-2,4-thiazolidinedione]
[1]; [2]
  LD50: 500 mg/kg
[1]; [3]
  LD50: 560 mg/kg
[1]; [4]
  LD50: 2150 mg/kg
[1]; po, oral administration, male
  LD50: 2320 mg/kg
[1]; [5]
  LD50: 2270 mg/kg
[1]; [6]
  LD50: 1720 mg/kg
Mouse; intraperitoneal injection
  General symptoms, additional in mice: projection of the eyeball, a secretion in the margin of palpebra, fall of the body surface temperature and a slight degree of tremor in a few cases were seen
Mouse; oral administration
  General symptoms, additional in mice: lacrimation, a secretion in the margin of palpebra and fall of the body surface temperature were additionally observed
Mouse; subcutaneous injection, next day after administration
  General symptoms, additional in mice: projection of the eyeball, a secretion in the margin of palpebra and fall of the body surface temperature were additionally seen
Rat; rat, in vivo, po
  Observation on dissection: atrophy of the thymus gland was further seen
Rat; rats, subcutaneous administration, injection area
  Observation on dissection, survival cases: formed with a cyst of hen's egg size in the injection area, and the cyst was found to contain an extremely small amount of unabsorbed medicament and a small amount of extravasation liquid
In vivo; [2]
  LD50: 520 mg/kg
In vivo; [3]
  LD50: 490 mg/kg
In vivo; [4]
  LD50: 4330 mg/kg
In vivo; po, oral administration, male
  LD50: 5300 mg/kg
In vivo; [5]
  LD50: 3300 mg/kg
In vivo; [6]
  LD50: 3210 mg/kg
Mice and rats; in vivo, sc
  General symptoms: 3 or 5 hours after the administration, a slight suppression of spontaneous motility was found, and then, lowering in tonus of the abdominal muscle, walking disorder, lacrimation and respiratory depression were observed
Mice and rats; intraperitoneal administration
  life period in the death cases: 2 to 24 h
Mice and rats; mice and rats
  Observation on dissection, death cases: congestion of the lung was observed in both mice and rats
Mice and rats; oral administration, major cases
  life period in the death cases: 2 to 24 h
Mice and rats; oral administration, minor cases
  life period in the death cases: 48 to 96 h
Mice and rats; subcutaneous administration
  life period in the death cases: from the night of the administration day to three days after the administration

— US4602026A, “Ophthalmic topical agent for remedy of diseases of iris and ciliary body” (Senju Pharmaceutical Co., Ltd., priority 1984, dated 1986)
